Reference: patent US20140135270A1, “MACROCYCLIC COMPOUNDS FOR INHIBITION OF INHIBITORS OF APOPTOSIS” (Ensemble Therapeutics Corp., priority 2012, published 2014)
Like-named read-outs stand apart in the source and are kept apart here.

Key:
[1] = target: T1, His-BIR2 (124-240/C202A/C213G) (Homo sapiens, UniProt P98170, C202A/C213G); experiment: XIAP-BIR2/SMAC Peptide AlphaScreen Assay; format: binding; conditions: biotinylated SMAC peptide, read-out: BIR2 ALPHA IC50
T1 construct: additions of His-BIR2 (124-240/C202A/C213G), Biotinylated SMAC peptide
Experimental: C. XIAP-BIR2/SMAC Peptide AlphaScreen Assay
Assays were performed in white, flat-bottom, 384-well ProxiPlates (Perkin Elmer). […]. The reaction was incubated at room temperature for 60 minutes. After 60 minutes, 2.5 μL of Alphascreen detection reagent (Perkin Elmer) was added to the reaction mixture and incubated at room temperature in the dark for 120 minutes. The Alphascreen signal generated by the reaction was detected on the Envision Plate Reader. Inhibition data were calculated from an Alphascreen signal generated by the no protein control reactions for 100% inhibition and vehicle-only reactions for 0% inhibition. […]
Biotinylated SMAC peptide, 4 μg/mL Alphascreen detection reagents, and 0.5% DMSO. Dose response curves were generated to determine the concentration required for inhibiting 50% of the activity (IC50). Compounds were dissolved at 10 mM in dimethylsulfoxide (DMSO) and evaluated at eleven concentrations. IC50 values were derived by non-linear regression analysis.

[2] = target: T2, N-His-Tb-BIR3(241-356, XIAP) (Homo sapiens, UniProt P98170); experiment: XIAP-BIR3 SMAC Peptide Fluorescence Polarization Assay (FPA); format: binding
T2 construct: additions of N-His-Tb-BIR3(241-356, XIAP), fluoresceinated modified SMAC peptide; Tb (meaning not explained; sits between His tag and BIR3) (N)
Experimental: A. XIAP-BIR3 SMAC Peptide Fluorescence Polarization Assay (FPA) Assays were performed in black, flat-bottom, 384-well plates. The final assay volume was 50 μL prepared from additions of N-His-Tb-BIR3(241-356, XIAP), fluoresceinated modified SMAC peptide, and test compounds in assay buffer consisting of 20 mM Sodium Phosphate, 1 mM EDTA, 50 mM NaCl, and 0.05% Pluronic F68. The reaction was incubated at room temperature for 60 minutes and fluorescence polarization of the reaction was detected on the LJL Plate Reader. Inhibition data were calculated from mP values generated by the no protein control reactions for 100% inhibition and vehicle-only reactions for 0% inhibition. The final concentration of reagents in the assay was 130 nM N-His-Tb-BIR3(241-356, XIAP), 1.4 nM fluoresceinated modified SMAC peptide, and 1% DMSO. Dose response curves were generated to determine the concentration required for inhibiting 50% of polarization activity (IC50). Compounds were dissolved at 10 mM in dimethylsulfoxide (DMSO) and evaluated at eleven concentrations. IC50 values were derived by non-linear regression analysis.

[3] = target: T3, His-BIR2-3 (125-356, C202A/C213G, XIAP) (Homo sapiens, UniProt P98170, C202A/C213G); experiment: XIAP-BIR2-3 Dimeric SMAC Peptide Homogeneous Time Resolved Fluorescence (HTRF) Assay; format: binding; conditions: fluorescein labeled dimeric SMAC peptide
T3 construct: additions of His-BIR2-3 (125-356, C202A/C213G, XIAP), fluorescein labeled dimeric SMAC peptide

His-BIR3 (241-356, XIAP) = target: T4, His-BIR3 (241-356, XIAP) (Homo sapiens, UniProt P98170); experiment: XIAP-BIR3/SMAC Homogeneous Time Resolved Fluorescence (HTRF) Assay; format: binding; conditions: fluorescein labeled SMAC peptide
T4 construct: additions of His-BIR3 (241-356, XIAP), fluorescein labeled SMAC peptide

[4] = the molecule shown is the open-chain precursor, rcm bond
[5] = read-out: BIR3 FPA IC50, fluorescence polarization, fluoresceinated modified SMAC peptide

T2 sequence (P98170 241-356): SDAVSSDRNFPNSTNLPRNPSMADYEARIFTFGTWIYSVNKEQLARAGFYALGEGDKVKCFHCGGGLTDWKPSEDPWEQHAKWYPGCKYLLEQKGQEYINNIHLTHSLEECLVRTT
T1 sequence (P98170 124-240 C202A/C213G): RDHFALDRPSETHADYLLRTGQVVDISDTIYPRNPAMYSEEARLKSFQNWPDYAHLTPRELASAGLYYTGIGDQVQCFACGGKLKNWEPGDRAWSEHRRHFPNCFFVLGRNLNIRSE
T4 sequence (P98170 241-356): as the sequence (P98170 241-356) above
T3 sequence (P98170 125-356 C202A/C213G): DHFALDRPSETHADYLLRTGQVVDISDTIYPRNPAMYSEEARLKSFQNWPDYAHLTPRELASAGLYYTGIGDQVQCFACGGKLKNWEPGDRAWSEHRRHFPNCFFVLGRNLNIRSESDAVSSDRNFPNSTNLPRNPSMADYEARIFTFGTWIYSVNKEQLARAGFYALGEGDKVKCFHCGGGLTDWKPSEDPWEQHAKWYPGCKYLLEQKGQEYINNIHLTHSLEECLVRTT

| Compound | IC50 [1] | IC50 [2] | also measured |
| --- | --- | --- | --- |
| CNC(C)C(=O)NC(C(=O)N1CC2CC1C(=O)NC(Cc1ccc3ccccc3c1)C(=O)NC(C(=O)O)Cc1ccc(cc1)OCC=CCOC1CC(C(=O)NC(Cc3ccc4ccccc4c3)C(=O)NC(C(=O)O)Cc3ccc(cc3)C(=O)N2)N(C(=O)C(NC(=O)C(C)NC)C(C)(C)C)C1)C(C)(C)C (centres unmarked) [Example 32] | 0.0162 µM |  | IC50 [2, 5]: 0.0361 µM |
| CNC(C)C(=O)NC(C(=O)N1CC2CC1C(=O)NC(Cc1ccc3ccccc3c1)C(=O)NC(C(=O)O)Cc1ccc(cc1)OCC=CCOC1CC(C(=O)NC(Cc3ccc4ccccc4c3)C(=O)NC(C(=O)O)CCC(=O)N2)N(C(=O)C(NC(=O)C(C)NC)C(C)(C)C)C1)C(C)(C)C (centres unmarked) [Example 33] | 0.0216 µM |  | IC50 [3]: 0.0095 µM; IC50 [2, 5]: 0.0316 µM; IC50 (His-BIR3 (241-356, XIAP)): 0.0847 µM |
| CN[C@@H](C)C(=O)N[C@H](C(=O)N1C[C@@H]2C[C@H]1C(=O)N[C@@H](Cc1ccc3ccccc3c1)C(=O)N[C@H](C(=O)O)COC/C=C/CO[C@H]1C[C@@H](C(=O)N[C@@H](Cc3ccc4ccccc4c3)C(=O)N[C@H](C(=O)O)CCC(=O)N2)N(C(=O)[C@@H](NC(=O)[C@H](C)NC)C(C)(C)C)C1)C(C)(C)C [Example 34] | 0.0336 µM | 0.0401 µM |  |
| CN[C@@H](C)C(=O)N[C@H](C(=O)N1C[C@@H]2C[C@H]1C(=O)N[C@@H](Cc1ccc3ccccc3c1)C(=O)N[C@H](C(=O)O)C/C=C/CO[C@H]1C[C@@H](C(=O)N[C@@H](Cc3ccc4ccccc4c3)C(=O)N[C@H](C(=O)O)CCC(=O)N2)N(C(=O)[C@@H](NC(=O)[C@H](C)NC)C(C)(C)C)C1)C(C)(C)C [Example 35] | 0.0491 µM | 0.0476 µM |  |
| CNC(C)C(=O)NC(C(=O)N1CC2CC1C(=O)NC(Cc1ccc3ccccc3c1)C(=O)NC(C(=O)O)Cc1ccc(cc1)OCC=CCOC1CC(C(=O)NC(Cc3ccc4ccccc4c3)C(=O)NC(C(=O)O)CCCC(=O)N2)N(C(=O)C(NC(=O)C(C)NC)C(C)(C)C)C1)C(C)(C)C (centres unmarked) [Example 36] | 0.0388 µM |  | IC50 [2, 5]: 0.049 µM |
| CN[C@@H](C)C(=O)N[C@H](C(=O)N1C[C@@H]2C[C@H]1C(=O)N[C@@H](Cc1ccc3ccccc3c1)C(=O)N[C@H](C(=O)O)COC/C=C/CO[C@H]1C[C@@H](C(=O)N[C@@H](Cc3ccc4ccccc4c3)C(=O)N[C@H](C(=O)O)CCCC(=O)N2)N(C(=O)[C@@H](NC(=O)[C@H](C)NC)C(C)(C)C)C1)C(C)(C)C [Example 37] | 0.0582 µM | 0.033 µM |  |
| CN[C@@H](C)C(=O)N[C@H](C(=O)N1C[C@@H]2C[C@H]1C(=O)N[C@@H](Cc1ccc3ccccc3c1)C(=O)N[C@H](C(=O)O)C/C=C/CO[C@H]1C[C@@H](C(=O)N[C@@H](Cc3ccc4ccccc4c3)C(=O)N[C@H](C(=O)O)CCCC(=O)N2)N(C(=O)[C@@H](NC(=O)[C@H](C)NC)C(C)(C)C)C1)C(C)(C)C [Example 38] | 0.116 µM | 0.0421 µM |  |
| CN[C@@H](C)C(=O)N[C@H](C(=O)N1C[C@@H]2C[C@H]1C(=O)N[C@@H](Cc1ccc3ccccc3c1)C(=O)N[C@H](C(=O)O)COC/C=C/CO[C@H]1C[C@@H](C(=O)N[C@@H](Cc3ccc4ccccc4c3)C(=O)N[C@H](C(=O)O)Cc3ccc(cc3)C(=O)N2)N(C(=O)[C@@H](NC(=O)[C@H](C)NC)C(C)(C)C)C1)C(C)(C)C [Example 39] | 0.0411 µM | 0.0313 µM |  |
| CN[C@@H](C)C(=O)N[C@H](C(=O)N1C[C@@H]2C[C@H]1C(=O)N[C@@H](Cc1ccc3ccccc3c1)C(=O)N[C@H](C(=O)O)C/C=C/CO[C@H]1C[C@@H](C(=O)N[C@@H](Cc3ccc4ccccc4c3)C(=O)N[C@H](C(=O)O)Cc3ccc(cc3)C(=O)N2)N(C(=O)[C@@H](NC(=O)[C@H](C)NC)C(C)(C)C)C1)C(C)(C)C [Example 40] | 0.0442 µM | 0.0263 µM |  |
| CN[C@@H](C)C(=O)N[C@H](C(=O)N1C[C@@H]2C[C@H]1C(=O)N[C@@H](Cc1ccc3ccccc3c1)C(=O)N[C@H](C(=O)O)Cc1ccc(cc1)OC/C=C/CO[C@H]1C[C@@H](C(=O)N[C@@H](Cc3ccc4ccccc4c3)C(=O)N[C@H](C(=O)O)CC(=O)N2)N(C(=O)[C@@H](NC(=O)[C@H](C)NC)C(C)(C)C)C1)C(C)(C)C [Example 41] | 0.0457 µM | 0.0467 µM |  |
| CN[C@@H](C)C(=O)N[C@H](C(=O)N1C[C@@H]2C[C@H]1C(=O)N[C@@H](Cc1ccc3ccccc3c1)C(=O)N[C@H](C(=O)O)COC/C=C/CO[C@H]1C[C@@H](C(=O)N[C@@H](Cc3ccc4ccccc4c3)C(=O)N[C@H](C(=O)O)CC(=O)N2)N(C(=O)[C@@H](NC(=O)[C@H](C)NC)C(C)(C)C)C1)C(C)(C)C [Example 42] | 0.0746 µM | 0.044 µM |  |
| CN[C@@H](C)C(=O)N[C@H](C(=O)N1C[C@@H]2C[C@H]1C(=O)N[C@@H](Cc1ccc3ccccc3c1)C(=O)N[C@H](C(=O)O)C/C=C/CO[C@H]1C[C@@H](C(=O)N[C@@H](Cc3ccc4ccccc4c3)C(=O)N[C@H](C(=O)O)CC(=O)N2)N(C(=O)[C@@H](NC(=O)[C@H](C)NC)C(C)(C)C)C1)C(C)(C)C [Example 43] | 0.147 µM | 0.0741 µM |  |
| (S)-Methyl 2-((S)-2-((2S,4S)-4-allyl-1-((S)-2-((S)-2-((tert-butoxycarbonyl)(methyl)amino)propanamido)-3,3-dimethylbutanoyl)pyrrolidine-2-carboxamido)-3-(naphthalen-2-yl)propanamido)-3-(4-(((E)-4-((3S,5S)-5-(((S)-1-(((S)-3-(4-(allyloxy)phenyl)-1-(cyclopropanesulfonamido)-1-oxopropan-2-yl)amino)-3-(naphthalen-2-yl)-1-oxopropan-2-yl)carbamoyl)-1-((S)-2-((S)-2-((tert-butoxycarbonyl)(methyl)amino)propanamido)-3,3-dimethylbutanoyl)pyrrolidin-3-yl)but-2-en-1-yl)oxy)phenyl)propanoate |  |  | ring closure, isolated yield ([4]; 38-membered ring, Grubbs I (2 portions), DCE, 1.1 mM, 55.0 °C): 64% |
| (S)-tert-Butyl 2-((S)-2-((2S,4S)-4-allyl-1-((S)-2-((S)-2-((tert-butoxycarbonyl)(methyl)amino)propanamido)-3,3-dimethylbutanoyl)pyrrolidine-2-carboxamido)-3-(naphthalen-2-yl)propanamido)-3-(4-((1-((3R,5S)-5-(((S)-1-(((S)-2-(4-(allyloxy)phenyl)-1-(1-trityl-1H-tetrazol-5-yl)ethyl)amino)-3-(naphthalen-2-yl)-1-oxopropan-2-yl)carbamoyl)-1-((S)-2-((S)-2-((tert-butoxycarbonyl)(methyl)amino)propanamido)-3,3-dimethylbutanoyl)pyrrolidin-3-yl)-1H-1,2,3-triazol-4-yl)methoxy)phenyl)propanoate |  |  | ring closure, isolated yield ([4]; 38-membered ring, Hoveyda-Grubbs II (2 portions), DCE, 2.34 mM, 70.0 °C): 48% |
| (S)-tert-butyl 2-((S)-2-((2S,4S)-4-((5-((4-((S)-2-((S)-2-((2S,4S)-4-allyl-1-((S)-2-((S)-2-((tert-butoxycarbonyl)(methyl)amino)propanamido)-3,3-dimethylbutanoyl)pyrrolidine-2-carboxamido)-3-(naphthalen-2-yl)propanamido)-3-(cyclopropanesulfonamido)-3-oxopropyl)phenoxy)methyl)-1H-1,2,3-triazol-1-yl)-1-((S)-2-((S)-2-((tert-butoxycarbonyl)(methyl)amino)propanamido)-3,3-dimethylbutanoyl)pyrrolidine-2-carboxamido)-3-(naphthalen-2-yl)propanamido)-3-(4-(allyloxy)phenyl)propanoate |  |  | ring closure, isolated yield ([4]; 37-membered ring, 2 steps): 2% |
